Test results taken from PubChem BioAssay (NCI).
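1) Cells in 96-well plates. 2) Compound, 48 h, 5 concentrations. 3) Linear interpolation between surrounding doses. 4) Unreached endpoint = highest concentration. TGI marks complete inhibition of growth.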

What was measured:
Test in all cases: NCI anticancer screen, dose series, 48 h
MDA-MB-231 breast = tested on: MDA-MB-231 breast
UACC-62 melanoma = tested on: UACC-62 melanoma
NCI-H522 lung = tested on: NCI-H522 lung
BT-549 breast = tested on: BT-549 breast
TK-10 renal = tested on: TK-10 renal
SF-295 CNS = tested on: SF-295 CNS
OVCAR-5 ovarian = tested on: OVCAR-5 ovarian
IGROV1 ovarian = tested on: IGROV1 ovarian
HCC-2998 colon = tested on: HCC-2998 colon
T-47D breast = tested on: T-47D breast
HOP-92 NSCLC = tested on: HOP-92 NSCLC
HS 578T breast = tested on: HS 578T breast
NCI/ADR-RES ovarian = tested on: NCI/ADR-RES ovarian
OVCAR-8 ovarian = tested on: OVCAR-8 ovarian
OVCAR-3 ovarian = tested on: OVCAR-3 ovarian
DU-145 prostate = tested on: DU-145 prostate
HOP-62 NSCLC = tested on: HOP-62 NSCLC
CAKI-1 renal = tested on: CAKI-1 renal
EKVX NSCLC = tested on: EKVX NSCLC
M14 melanoma = tested on: M14 melanoma
MCF7 breast = tested on: MCF7 breast
MOLT-4 leukemia = tested on: MOLT-4 leukemia
HT29 colon = tested on: HT29 colon
RXF 393 renal = tested on: RXF 393 renal
SNB-19 CNS = tested on: SNB-19 CNS
K-562 leukemia = tested on: K-562 leukemia
786-0 renal = tested on: 786-0 renal
SF-268 CNS = tested on: SF-268 CNS
OVCAR-4 ovarian = tested on: OVCAR-4 ovarian
SNB-75 CNS = tested on: SNB-75 CNS
SW-620 colon = tested on: SW-620 colon
NCI-H23 lung = tested on: NCI-H23 lung
HCT-15 colon = tested on: HCT-15 colon
MALME-3M melanoma = tested on: MALME-3M melanoma
SK-MEL-28 melanoma = tested on: SK-MEL-28 melanoma
SN12C renal = tested on: SN12C renal
SR leukemia = tested on: SR leukemia
SF-539 CNS = tested on: SF-539 CNS
LOX IMVI melanoma = tested on: LOX IMVI melanoma
SK-MEL-2 melanoma = tested on: SK-MEL-2 melanoma
SK-MEL-5 melanoma = tested on: SK-MEL-5 melanoma
NCI-H226 lung = tested on: NCI-H226 lung
U251 CNS = tested on: U251 CNS
HCT-116 colon = tested on: HCT-116 colon
MDA-MB-435 = tested on: MDA-MB-435
KM12 colon = tested on: KM12 colon
NCI-H460 lung = tested on: NCI-H460 lung
ACHN renal = tested on: ACHN renal
UACC-257 melanoma = tested on: UACC-257 melanoma
RPMI-8226 leukemia = tested on: RPMI-8226 leukemia
A498 renal = tested on: A498 renal
COLO 205 colon = tested on: COLO 205 colon
HL-60(TB) leukemia = tested on: HL-60(TB) leukemia
SK-OV-3 ovarian = tested on: SK-OV-3 ovarian
PC-3 prostate = tested on: PC-3 prostate
CCRF-CEM leukemia = tested on: CCRF-CEM leukemia
MDA-N = tested on: MDA-N
A549 NSCLC = tested on: A549 NSCLC
UO-31 renal = tested on: UO-31 renal

**Q.** With CC1(C)C(=O)N(O)C(C)(C)N1O as the compound, how does the TGI (MDA-MB-231 breast) read?
**A.** > 10 µM

**Q.** What about the TGI (UACC-62 melanoma) of the same compound?
**A.** > 10 µM

**Q.** And the TGI (NCI-H522 lung)?
**A.** > 10 µM

**Q.** And the TGI (BT-549 breast)?
**A.** > 10 µM

**Q.** And the TGI (TK-10 renal)?
**A.** > 10 µM

**Q.** And the TGI (SF-295 CNS)?
**A.** > 10 µM

**Q.** What about the TGI (OVCAR-5 ovarian) of the same compound?
**A.** > 10 µM

**Q.** And the TGI (IGROV1 ovarian)?
**A.** > 10 µM

**Q.** What about the TGI (HCC-2998 colon) of the same compound?
**A.** > 10 µM

**Q.** What about the TGI (T-47D breast) of the same compound?
**A.** > 10 µM

**Q.** And the TGI (HOP-92 NSCLC)?
**A.** > 10 µM

**Q.** What about the TGI (HS 578T breast) of the same compound?
**A.** > 10 µM

**Q.** What about the TGI (NCI/ADR-RES ovarian) of the same compound?
**A.** > 10 µM

**Q.** And the TGI (OVCAR-8 ovarian)?
**A.** > 10 µM

**Q.** And the TGI (OVCAR-3 ovarian)?
**A.** > 10 µM

**Q.** And the TGI (DU-145 prostate)?
**A.** > 10 µM

**Q.** What about the TGI (HOP-62 NSCLC) of the same compound?
**A.** > 10 µM

**Q.** And the TGI (CAKI-1 renal)?
**A.** > 10 µM

**Q.** What about the TGI (EKVX NSCLC) of the same compound?
**A.** > 10 µM

**Q.** And the TGI (M14 melanoma)?
**A.** > 10 µM

**Q.** And the TGI (MCF7 breast)?
**A.** > 10 µM

**Q.** And the TGI (MOLT-4 leukemia)?
**A.** > 10 µM

**Q.** And the TGI (HT29 colon)?
**A.** > 10 µM

**Q.** And the TGI (RXF 393 renal)?
**A.** > 10 µM

**Q.** And the TGI (SNB-19 CNS)?
**A.** > 10 µM

**Q.** And the TGI (K-562 leukemia)?
**A.** > 10 µM

**Q.** What about the TGI (786-0 renal) of the same compound?
**A.** > 10 µM

**Q.** What about the TGI (SF-268 CNS) of the same compound?
**A.** > 10 µM

**Q.** What about the TGI (OVCAR-4 ovarian) of the same compound?
**A.** > 10 µM

**Q.** And the TGI (SNB-75 CNS)?
**A.** > 10 µM

**Q.** What about the TGI (SW-620 colon) of the same compound?
**A.** > 10 µM

**Q.** What about the TGI (NCI-H23 lung) of the same compound?
**A.** > 10 µM

**Q.** What about the TGI (HCT-15 colon) of the same compound?
**A.** > 10 µM

**Q.** And the TGI (MALME-3M melanoma)?
**A.** > 10 µM

**Q.** And the TGI (SK-MEL-28 melanoma)?
**A.** > 10 µM

**Q.** What about the TGI (SN12C renal) of the same compound?
**A.** > 10 µM

**Q.** What about the TGI (SR leukemia) of the same compound?
**A.** > 10 µM

**Q.** And the TGI (SF-539 CNS)?
**A.** > 10 µM

**Q.** What about the TGI (LOX IMVI melanoma) of the same compound?
**A.** > 10 µM

**Q.** What about the TGI (SK-MEL-2 melanoma) of the same compound?
**A.** > 10 µM

**Q.** And the TGI (SK-MEL-5 melanoma)?
**A.** > 10 µM

**Q.** And the TGI (NCI-H226 lung)?
**A.** > 10 µM

**Q.** What about the TGI (U251 CNS) of the same compound?
**A.** > 10 µM

**Q.** What about the TGI (HCT-116 colon) of the same compound?
**A.** > 10 µM

**Q.** What about the TGI (MDA-MB-435) of the same compound?
**A.** > 10 µM

**Q.** And the TGI (KM12 colon)?
**A.** > 10 µM

**Q.** And the TGI (NCI-H460 lung)?
**A.** > 10 µM

**Q.** And the TGI (ACHN renal)?
**A.** > 10 µM

**Q.** And the TGI (UACC-257 melanoma)?
**A.** > 10 µM

**Q.** And the TGI (RPMI-8226 leukemia)?
**A.** > 10 µM

**Q.** And the TGI (A498 renal)?
**A.** > 10 µM

**Q.** What about the TGI (COLO 205 colon) of the same compound?
**A.** > 10 µM

**Q.** What about the TGI (HL-60(TB) leukemia) of the same compound?
**A.** > 10 µM

**Q.** What about the TGI (SK-OV-3 ovarian) of the same compound?
**A.** > 10 µM

**Q.** And the TGI (PC-3 prostate)?
**A.** > 10 µM

**Q.** And the TGI (CCRF-CEM leukemia)?
**A.** > 10 µM

**Q.** And the TGI (MDA-N)?
**A.** > 10 µM

**Q.** What about the TGI (A549 NSCLC) of the same compound?
**A.** > 10 µM

**Q.** What does the source list for CC(C)=CCOc1cc(NC(=S)c2ccoc2C)ccc1Cl?
**A.** TGI (MDA-MB-231 breast): > 100 µM; TGI (UACC-62 melanoma): > 100 µM; TGI (NCI-H522 lung): > 100 µM; TGI (BT-549 breast): > 100 µM; TGI (TK-10 renal): > 100 µM; TGI (SF-295 CNS): > 100 µM; TGI (OVCAR-5 ovarian): > 100 µM; TGI (IGROV1 ovarian): > 100 µM; TGI (HCC-2998 colon): > 100 µM; TGI (T-47D breast): > 100 µM; TGI (HOP-92 NSCLC): > 100 µM; TGI (HS 578T breast): > 100 µM; TGI (NCI/ADR-RES ovarian): > 100 µM; TGI (OVCAR-8 ovarian): > 100 µM; TGI (OVCAR-3 ovarian): > 100 µM; TGI (DU-145 prostate): > 100 µM; TGI (HOP-62 NSCLC): > 100 µM; TGI (CAKI-1 renal): > 100 µM; TGI (EKVX NSCLC): > 100 µM; TGI (MCF7 breast): > 100 µM; TGI (MOLT-4 leukemia): > 100 µM; TGI (HT29 colon): > 100 µM; TGI (RXF 393 renal): > 100 µM; TGI (SNB-19 CNS): > 100 µM; TGI (786-0 renal): > 100 µM; TGI (SF-268 CNS): > 100 µM; TGI (OVCAR-4 ovarian): > 100 µM; TGI (SNB-75 CNS): 63.9 µM; TGI (SW-620 colon): > 100 µM; TGI (NCI-H23 lung): > 100 µM; TGI (HCT-15 colon): > 100 µM; TGI (MALME-3M melanoma): > 100 µM; TGI (UO-31 renal): > 100 µM; TGI (SK-MEL-28 melanoma): > 100 µM; TGI (SN12C renal): > 100 µM; TGI (SR leukemia): > 100 µM; TGI (SF-539 CNS): > 100 µM; TGI (LOX IMVI melanoma): > 100 µM; TGI (SK-MEL-2 melanoma): > 100 µM; TGI (SK-MEL-5 melanoma): > 100 µM; TGI (NCI-H226 lung): > 100 µM; TGI (U251 CNS): > 100 µM; TGI (HCT-116 colon): > 100 µM; TGI (MDA-MB-435): > 100 µM; TGI (KM12 colon): > 100 µM; TGI (NCI-H460 lung): > 100 µM; TGI (ACHN renal): > 100 µM; TGI (UACC-257 melanoma): > 100 µM; TGI (RPMI-8226 leukemia): > 100 µM; TGI (A498 renal): > 100 µM; TGI (COLO 205 colon): > 100 µM; TGI (SK-OV-3 ovarian): > 100 µM; TGI (PC-3 prostate): > 100 µM; TGI (CCRF-CEM leukemia): > 100 µM; TGI (MDA-N): > 100 µM; TGI (A549 NSCLC): > 100 µM
